How the values were obtained:
[1] = tested on: pyruvate dehydrogenase (PDH); assay: Pyruvate dehydrogenase (PDH) activity assay, gastrocnemius muscle lysates of DIO mice; type: in vivo, C57BL/6J mice; settings: ad libitum HFD mice, AvoB 100 mg/kg b.w. twice weekly, endpoint
Protocol: After mice were euthanized, muscle tissues were freeze-clamped and flash-frozen in liquid nitrogen. The PDH activity from flash-frozen whole gastrocnemius muscle lysates was measured using a colorimetric microplate assay kit (ab109902, Abcam, Cambridge, MA, USA) following the manufacturer's protocol and as previously described (see reference number 12). Briefly, PDH proteins from whole gastrocnemius muscle lysates (lysed in the presence of 10 mM sodium fluoride (NaF) preserve the phosphorylated status of PDH or to determine native PDH activity as a result of HFD feeding) were immunocaptured on a microplate by loading equal amounts of protein for each sample. PDH activity was then determined spectrophotometrically by monitoring the reduction of NAD+ to NADH, coupled to the reduction of a reporter dye at an absorbance of 450 nm.

INS-1 (832/13) cells [2] = assay: Fatty acid oxidation ([1-14C]-palmitate) in INS-1 (832/13) cells; type: cell-based, rat; settings: 25 μM AvoB, 0.5 mM palmitate-BSA/1 mM L-carnitine, 24 h
Protocol: (§1) FAO in cell lines was determined using established methods. […] [1-^14C]-palmitate was prepared and applied to cells as follows: purchased stock supplied in ethanol (PerkinElmer, MA, USA) was dried in vacuo and then re-suspended in a solution containing unlabeled carrier in BSA to yield a mixture of 7% BSA [w/v], 2.5 mM palmitate with [1-^14C]-palmitate at a final concentration of 10 μCi/mL. Following a 16 hour incubation at 37° C., the solution containing radiolabeled palmitate was diluted with respective serum free cell culture media (low glucose RPMI media for INS-1 (832/13) cells and low glucose DMEM for C2C12 myotubes) containing 1 mM L-carnitine to a final concentration of 0.3% BSA, 100 μM palmitate, and 0.4 μCi/mL [1-^14C]-palmitate. Following incubation of treated cells with [1-^14C]-palmitate, 400 μL of well media was transferred to acidification vials containing perchloric acid and capped with CO2 filter traps impregnated with 1M NaOH. […] The CO2 trap was transferred to scintillation vials containing 4 mL of scintillation fluid and complete FAO was quantified using a Tri-Carb 2910 TR liquid scintillation analyzer (PerkinElmer). The amount of radioactivity in the media was also determined after pelleting cells and debris (14,000×g, 10 min); this quantified acid soluble metabolites (ASMs), an indirect measure of incomplete FAO.

C2C12 myotubes [3] = assay: Fatty acid oxidation ([1-14C]-palmitate) in C2C12 myotubes; type: cell-based, mouse; settings: 25 μM AvoB, 0.5 mM palmitate-BSA/1 mM L-carnitine, 24 h
Protocol: as §1

C2C12 myotubes [4] = assay: Mitochondrial ROS (MitoSOX) and membrane potential (JC-1) in C2C12 myotubes; type: cell-based, mouse; settings: 25 μM AvoB, 0.5 mM palmitate, 24 h
Protocol: For all ROS studies, INS-1 (832/13) cells and C2C12 myotubes were treated with or without palmitate and FAO inhibitors for 24 h in low glucose cell culture media as described for the FAO assay. After treatment, cells were trypsinized and re-suspended in PBS containing 5 μM of the fluorescent dye MitoSOX® (Molecular Probes, Invitrogen) and allowed to incubate for 5-15 minutes in a humidified atmosphere containing 5% CO2 at 37° C. Cells were then washed in PBS, placed in a 96 well plate and fluorescence was measured by flow cytometry. ROS was quantified by normalizing the mean fluorescence values of live gated cells to vehicle control. Mitochondrial membrane potential (MMP) in INS-1 (832/13) and C2C12 myotubes was measured using the cationic fluorescent dye JC-1 (Molecular Probes). […] JC-1 fluoresces green in the cytosol where it exists as a monomer, after entering the mitochondria JC-1 monomers form J aggregates and fluoresce red, thus the red/green fluorescence ratio is used to determine MMP. […] Cells were then washed in PBS, placed in a 96 well plate and fluorescence was measured by flow cytometry. MMP was quantified by normalizing the mean fluorescence values of live gated cells to vehicle control. […] Cells were treated, washed and collected as described and incubated with 0.35 μM NAO and green fluorescence was measured using flow cytometry. […]

INS-1 (832/13) cells [5] = assay: Glucose oxidation (D-[14C(U)]-glucose) in INS-1 (832/13) cells; type: cell-based, rat; settings: 25 μM AvoB, lipotoxic conditions, vs palmitate only
Protocol: C2C12 myotubes and INS-1 (832/13) cells treated as in the FAO assays described above and then incubated with D-[^14C(U)]-glucose (0.58 μC/mL) and unlabeled glucose (final glucose concentration 200 μM) for 4 h subsequent to which [^14C]—CO2 (representing complete glucose oxidation) and ASMs (representing incomplete glucose oxidation) were captured and quantified as described in the FAO method. For C2C12 myotubes, glucose oxidation and uptake was measured with and without a 30 min pre-incubation with 100 nM insulin to determine basal and insulin-mediated glucose oxidation or uptake, respectively.

INS-1 (832/13) cells [6] = assay: Cytosolic calcium determination (fluo-3AM) in INS-1 (832/13) cells; type: cell-based, rat; settings: 0.5 mM palmitate, non-stimulatory glucose, AvoB 25 μM, ETO 100 μM, TMB-8 10 μM
Protocol: INS-1 (832/13) cells were treated as described for the FAO assays but also with metabolic modulators dichloroacetate (DCA) (1 mM) and trimetazidine (25 μM) as well as 10 μM endoplasmic reticulum calcium blocker 8-(N,N-Diethylamino)-octyl-3,4,5-trimethoxybenzoate HCl (TMB-8) (Sigma Aldrich) or 25 nM cyclosporin (Sigma Aldrich) in the presence of 0.5 mM palmitate/1 mM L-carnitine. Cytosolic calcium was measured in INS-1 (832/13) cells using fluo-3AM (Invitrogen, F1241) charged fluorescent dye that accumulates in the cytosol and emits green fluorescence after binding calcium ions. A stock solution of 10 mM fluo-3AM was diluted to 5 μM in fluo-3AM loading buffer (10 mM 4-(2-hydroxyethyl)-1-piperazineethanesulfonic acid (HEPES), 137 mM NaCl, […], 1 mM Na2HPO4, 5 mM glucose, and 0.5 mM MgCl2 (pH 7.4)]. After treatment, cells were incubated in fluo-3AM loading buffer for 30 min at 37° C. with gentle agitation after which cells were washed twice with PBS, trypsinized and collected for flow cytometry analysis. Cytosolic calcium was quantified by taking the mean green fluorescence values of live gated cells and normalizing to vehicle control.

avocatin B [AvoB]
Native PDH activity in gastrocnemius muscle [1]: restored to that of lean, STD mice | Complete FAO ([1-14C]-palmitate oxidation to CO2) (INS-1 (832/13) cells [2]): inhibited complete FAO | Complete FAO ([1-14C]-palmitate oxidation to CO2) (C2C12 myotubes [3]): inhibited complete FAO | Incomplete FAO (ASM levels) (C2C12 myotubes [3]): did not increase incomplete FAO | Mitochondrial membrane potential (MMP, JC-1) (C2C12 myotubes [4]): lowers palmitate induced increases | Mitochondrial superoxide levels (MitoSOX Red) (C2C12 myotubes [4]): lowers palmitate induced increases in mitochondrial superoxide levels | Glucose oxidation (D-[14C(U)]-glucose to CO2) (INS-1 (832/13) cells [5]): greater glucose oxidation compared to cells treated with palmitate only | Cytosolic Ca2+ (Fluo-3AM) (INS-1 (832/13) cells [6]): able to reduce cytosolic Ca^2+

— patent publication US12390423B2 (priority 2019, dated 2025)
